The results in this text go back to patent publication US7045532B2 (Millennium Pharmaceuticals, Inc., priority 1999, dated 2006).

The target of data set [1] is T1, Carboxypeptidase A (Bos taurus, UniProt P00730).
T1 sequence (P00730 111-419): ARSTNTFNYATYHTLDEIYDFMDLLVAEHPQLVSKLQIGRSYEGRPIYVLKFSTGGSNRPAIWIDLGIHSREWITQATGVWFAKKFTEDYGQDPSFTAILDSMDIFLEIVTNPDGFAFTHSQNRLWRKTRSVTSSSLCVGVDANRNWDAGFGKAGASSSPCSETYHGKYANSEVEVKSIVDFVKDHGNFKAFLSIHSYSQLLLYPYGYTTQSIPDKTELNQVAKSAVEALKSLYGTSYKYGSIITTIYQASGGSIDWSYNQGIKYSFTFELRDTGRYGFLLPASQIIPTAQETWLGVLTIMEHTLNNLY
The data set is described as follows: Carboxypeptidase A activity assay. The following applies: Ki class; compounds tested in 5% DMSO, 12 concentrations. It counts as biochemical. In a few lines: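 Bovine carboxypeptidase A activity followed at 328 nm in 5% DMSO, reaction stopped with EDTA. Activity measured at 12 compound concentrations. Ki derived from apparent Ki as Ki=Kiapp/(1+[S]/Km).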

Data set [2] addresses T2, ACE (Sigma, A2580) (Sus scrofa, UniProt F1RRW5).
T2 construct: ACE from porcine kidney; purchased Sigma A2580; host or cells: porcine kidney
T2 sequence (F1RRW5 34-1309): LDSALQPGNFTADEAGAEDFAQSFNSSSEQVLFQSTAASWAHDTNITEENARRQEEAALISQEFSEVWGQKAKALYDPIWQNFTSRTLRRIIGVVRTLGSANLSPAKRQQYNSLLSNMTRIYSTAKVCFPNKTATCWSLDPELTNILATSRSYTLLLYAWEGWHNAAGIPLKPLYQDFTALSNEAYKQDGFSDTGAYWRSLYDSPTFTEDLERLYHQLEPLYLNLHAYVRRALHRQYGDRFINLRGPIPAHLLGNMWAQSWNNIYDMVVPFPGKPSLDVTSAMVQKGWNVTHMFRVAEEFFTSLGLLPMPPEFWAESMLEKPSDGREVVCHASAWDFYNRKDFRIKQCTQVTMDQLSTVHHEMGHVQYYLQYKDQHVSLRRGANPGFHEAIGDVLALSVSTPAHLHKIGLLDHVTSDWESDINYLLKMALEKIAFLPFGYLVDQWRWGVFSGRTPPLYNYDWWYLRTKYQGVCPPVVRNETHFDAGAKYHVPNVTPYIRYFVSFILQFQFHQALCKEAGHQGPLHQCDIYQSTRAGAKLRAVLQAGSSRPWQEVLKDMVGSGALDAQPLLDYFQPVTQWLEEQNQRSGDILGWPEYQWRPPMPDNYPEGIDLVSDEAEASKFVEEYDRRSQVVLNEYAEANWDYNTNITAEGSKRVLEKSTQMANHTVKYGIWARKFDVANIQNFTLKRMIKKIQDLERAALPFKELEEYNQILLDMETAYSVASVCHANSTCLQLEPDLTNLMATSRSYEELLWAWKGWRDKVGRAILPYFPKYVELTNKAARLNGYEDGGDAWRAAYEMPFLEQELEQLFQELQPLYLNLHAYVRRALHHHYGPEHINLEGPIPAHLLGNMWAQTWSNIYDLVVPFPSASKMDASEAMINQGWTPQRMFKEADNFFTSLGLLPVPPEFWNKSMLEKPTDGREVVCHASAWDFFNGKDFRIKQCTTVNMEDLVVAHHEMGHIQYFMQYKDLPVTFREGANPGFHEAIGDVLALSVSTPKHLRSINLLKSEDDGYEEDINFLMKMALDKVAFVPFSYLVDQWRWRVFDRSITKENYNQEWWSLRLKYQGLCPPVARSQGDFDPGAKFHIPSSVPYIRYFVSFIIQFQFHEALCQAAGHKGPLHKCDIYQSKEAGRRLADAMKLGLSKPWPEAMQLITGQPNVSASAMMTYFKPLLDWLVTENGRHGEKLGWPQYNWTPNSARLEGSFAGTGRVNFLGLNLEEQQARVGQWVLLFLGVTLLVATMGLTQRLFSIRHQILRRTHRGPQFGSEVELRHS
Description: ACE enzymatic activity assay. In kind it is biochemical, porcine. The following applies: Ki class; compounds tested in 5% DMSO, 12 concentrations. In a few lines: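 ACE (1 nM final) in 50 mM HEPES, 300 mM NaCl, 0.01% Brij-35, pH 7.5, with compound in 5% DMSO at 12 concentrations, 25 °C. Substrate cleavage run ~30 min, stopped with EDTA; fluorescence read at excitation 320 nm, emission 405 nm.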

Data set [3] addresses T3, ACE-2 (Homo sapiens, UniProt Q9BYF1).
T3 construct: a stop codon inserted after the serine immediately preceding the transmembrane domain; made in house; host or cells: CHO K1 cells (transient transfection, purified from conditioned medium)
The data set is described as follows: ACE-2 Competitive Substrate Assay (ACS Assay). The following applies: Ki class; compounds tested in 5% DMSO, 12 concentrations; read-out: Human ACE-2 Activity. It counts as biochemical.

Data set [4] addresses ACE-2 (Rattus norvegicus, UniProt Q5EGZ1). Description: ACE-2 Competitive Substrate Assay, rat ACE-2. In kind it is biochemical. The following applies: Ki class; compounds tested in 5% DMSO, 12 concentrations.
Description: (§1) ACE-2 enzymatic activity was assayed in microtitre plates by the following procedure. The ACE-2 assay buffer used contained 50 mM MES (Boehringer-Mannheim), 300 mM NaCl (Sigma) and 0.01% Brij-35 (Pierce Chemical Co.) at pH 6.5.
(§2) Reactions were mixed and incubated at 25° C.
The activity of the test compounds was investigated using the procedure outlined above. The compounds were tested in 5% DMSO. Enzyme activity was measured at 12 compound concentrations.
Data set [5] in a line: Effect on appetite: food consumption in ICR mice. The following applies: 3 mg/kg oral.
Data set [6] relates to COc1ccc2c(CC(=O)N[C@@H](Cc3ccc(O)cc3)C(=O)N[C@H](C(=O)N[C@@H](C)C(=O)N[C@@H](CC(=O)O)C(=O)N[C@@H](C)C(=O)N3CCC[C@H]3C(=O)N[C@@H](CCCCNc3ccc([N+](=O)[O-])cc3[N+](=O)[O-])C(=O)O)C(C)C)cc(=O)oc2c1. The data set is described as follows: purified protein, by the assay type. The following applies: other: fluorogenic substrate of ACE-2, pH 6.5, 25° C.
Description: as §1, §2
In data set [7] the test system is COc1ccc2c(CC(=O)N[C@@H](C)C(=O)N3CCC[C@H]3C(=O)N[C@@H](CCCCNc3ccc([N+](=O)[O-])cc3[N+](=O)[O-])C(=O)O)cc(=O)oc2c1. Description: purified protein, by the assay type. To be noted: other: fluorogenic substrate of ACE-2, pH 6.5, 25° C.
Description: as §1, §2

Where only a bound is given, the exact number is not on record here.

A word on the Km: it is the substrate concentration at which the rate is half of its maximum. One may read the kcat/Km as the turnover number divided by the Michaelis constant.

T3 sequence (Q9BYF1 18-740 limits assumed): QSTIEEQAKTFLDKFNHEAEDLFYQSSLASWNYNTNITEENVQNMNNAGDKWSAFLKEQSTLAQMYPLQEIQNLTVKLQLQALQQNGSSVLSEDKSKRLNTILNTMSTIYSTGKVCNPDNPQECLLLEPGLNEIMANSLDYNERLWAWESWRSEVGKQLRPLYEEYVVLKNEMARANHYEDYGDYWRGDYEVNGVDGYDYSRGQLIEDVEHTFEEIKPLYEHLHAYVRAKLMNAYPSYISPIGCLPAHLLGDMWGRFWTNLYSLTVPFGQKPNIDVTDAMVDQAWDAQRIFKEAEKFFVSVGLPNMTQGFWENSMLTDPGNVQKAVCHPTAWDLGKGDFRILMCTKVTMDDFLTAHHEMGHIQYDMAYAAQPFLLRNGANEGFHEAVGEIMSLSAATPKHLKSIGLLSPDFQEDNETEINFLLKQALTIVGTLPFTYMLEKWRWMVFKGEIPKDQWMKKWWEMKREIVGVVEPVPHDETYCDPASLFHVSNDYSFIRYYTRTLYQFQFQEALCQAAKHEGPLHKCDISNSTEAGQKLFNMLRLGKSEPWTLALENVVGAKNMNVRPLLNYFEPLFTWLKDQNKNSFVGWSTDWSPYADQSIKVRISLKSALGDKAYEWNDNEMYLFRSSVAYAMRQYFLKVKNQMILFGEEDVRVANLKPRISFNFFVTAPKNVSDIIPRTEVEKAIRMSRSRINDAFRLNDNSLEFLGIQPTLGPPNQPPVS
ACE-2 (Rattus norvegicus, UniProt Q5EGZ1), sequence (Q5EGZ1 18-805): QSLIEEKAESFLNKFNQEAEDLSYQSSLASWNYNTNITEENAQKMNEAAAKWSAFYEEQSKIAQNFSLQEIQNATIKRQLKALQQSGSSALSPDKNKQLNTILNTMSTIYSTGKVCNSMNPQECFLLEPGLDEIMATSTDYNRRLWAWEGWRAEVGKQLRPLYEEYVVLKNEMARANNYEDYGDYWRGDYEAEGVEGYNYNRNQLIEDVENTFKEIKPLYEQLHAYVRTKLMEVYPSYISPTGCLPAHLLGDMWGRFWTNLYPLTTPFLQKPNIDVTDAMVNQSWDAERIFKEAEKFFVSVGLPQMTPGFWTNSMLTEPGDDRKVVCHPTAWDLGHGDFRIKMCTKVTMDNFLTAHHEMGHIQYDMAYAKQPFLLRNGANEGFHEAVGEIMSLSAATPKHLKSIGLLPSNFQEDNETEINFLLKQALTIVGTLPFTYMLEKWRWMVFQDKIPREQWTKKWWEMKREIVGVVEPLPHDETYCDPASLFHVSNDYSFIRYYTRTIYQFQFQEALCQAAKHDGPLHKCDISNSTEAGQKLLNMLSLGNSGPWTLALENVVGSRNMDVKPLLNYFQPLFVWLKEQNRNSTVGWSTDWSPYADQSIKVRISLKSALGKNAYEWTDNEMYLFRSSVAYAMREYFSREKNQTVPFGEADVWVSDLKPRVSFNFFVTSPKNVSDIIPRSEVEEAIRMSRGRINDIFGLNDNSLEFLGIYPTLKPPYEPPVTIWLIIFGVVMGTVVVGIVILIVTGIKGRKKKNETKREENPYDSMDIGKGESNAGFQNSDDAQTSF

For `O=C(O)[C@H](CC#Cc1ccccc1)N[C@@H](CCc1ccccc1)C(=O)O` [DS, 2-(1-Carboxy-3-phenyl-propylamino)-5-phenyl-pent-4-ynoic acid], the Ki in data set [1] is 10 to 50 µM; in data set [2] it was over 50 µM; in data set [3], over 0.5 µM; in data set [4] it was 0.1 to 0.5 µM.
For `CC(C)CC(N[C@@H](Cc1cncn1COCc1ccccc1)C(=O)O)C(=O)O` (stereo partly shown) [DX, 2-[2-(3-Benzyloxymethyl-3H-imidazol-4-yl)-1-carboxy-ethylamino]-4-methyl-pentanoic acid] the same measures were over 50 µM, over 50 µM, 0.1 to 0.5 µM and 0.1 to 0.5 µM.
For `CC(C)C[C@H](N[C@H](CCc1ccccc1)C(=O)O)C(=O)O` [E, 2-(1-Carboxy-3-phenyl-propylamino)-4-methyl-pentanoic acid] the same measures were over 50 µM, over 50 µM, over 0.5 µM and over 0.5 µM.
On to `O=C(O)[C@H](CC#Cc1ccccn1)N[C@@H](CCc1ccccc1)C(=O)O` [EA, 2-(1-Carboxy-3-phenyl-propylamino)-5-pyridin-2-yl-pent-4-ynoic acid], for which the Ki in data set [1] is under 10 µM; in data set [2] it was over 50 µM; in data set [3], over 0.5 µM; in data set [4] it was 0.1 to 0.5 µM.
For `O=C(O)[C@H](CC#Cc1ccccn1)N[C@H](CCc1ccccc1)C(=O)O` [EB, 2-(1-Carboxy-3-phenyl-propylamino)-5-pyridin-2-yl-pent-4-ynoic acid] the same measures were 10 to 50 µM, over 50 µM, over 0.5 µM and over 0.5 µM.
In the same order, the values of `CC(C)CC(N[C@@H](Cc1cn(Cc2ccc(Cl)cc2)cn1)C(=O)O)C(=O)O` (stereo partly shown) [EC, 2-{1-Carboxy-2-[1-(4-chloro-benzyl}-1H-imidazol-4-yl]-ethylamino)4-methyl-pentanoic acid] are under 10 µM, 10 to 50 µM, over 0.5 µM and over 0.5 µM.
In the same order, the values of `CC(C)CC(N[C@H](CC(=O)O)Cc1ccco1)C(=O)O` (stereo partly shown) [EH, 2-(1-Carboxymethyl-2-furan-2-yl-ethylamino)-4-methyl-pentanoic acid] are over 50 µM, over 50 µM, over 0.5 µM and over 0.5 µM.
For `CC(C)CC(N[C@@H](Cc1cn(Cc2ccc(C(F)(F)F)cc2)cn1)C(=O)O)C(=O)O` (stereo partly shown) [EL, 2-{1-Carboxy-2-[1-(4-trifluoromethyl-benzyl)-1H-imidazol-4-yl}-ethylamino]4-methyl-pentanoic acid], the Ki in data set [1] was 10 to 50 µM; in data set [2], over 50 µM; in data set [3] it was over 0.5 µM; in data set [4], 0.1 to 0.5 µM.
In the same order, the values of `COc1ccc(Cn2cnc(C[C@H](NC(CC(C)C)C(=O)O)C(=O)O)c2)cc1` (stereo partly shown) [EM, 2-[1-Carboxy-2-[1-(4-methoxy-benzyl)-1H-imidazol-4-yl]-ethylamino)4-methyl-pentanoic acid] are over 50 µM, over 50 µM, over 0.5 µM and over 0.5 µM.
In the case of `CC(C)CC(N[C@@H](Cc1c[nH]cn1)C(=O)NCC(=O)O)C(=O)O` (stereo partly shown) [FD, 2-[1-(Carboxymethyl-carbamoyl)-2-(1H-imidazol-4-yl)-ethylamino]4-methyl-pentanoic acid], the Ki is over 50 µM in data set [1], under 10 µM in data set [2], over 0.5 µM in data set [3] and over 0.5 µM in data set [4].
`CC(C)CC(N[C@@H](CN(C)c1ccccc1)C(=O)O)C(=O)O` (stereo partly shown) [FS, 2-[1-Carboxy-2-(methyl-phenyl-amino)-ethylamino]-4-methyl-pentanoic acid]: the Ki in data set [1] was 10 to 50 µM; in data set [2], over 50 µM; in data set [3], over 0.5 µM; in data set [4] it was under 0.1 µM.
For `CC(C)CC(N[C@H](CN(C)c1ccccc1)C(=O)O)C(=O)O` (stereo partly shown) [FT, 2-[1-Carboxy-2-(methyl-phenyl-amino)-ethylamino]-4-methyl-pentanoic acid] the same measures were over 50 µM, over 50 µM, over 0.5 µM and over 0.5 µM.
In the same order, the values of `CC(C)CC(N[C@@H](Cc1cncn1Cc1ccc(C(F)(F)F)cc1)C(=O)O)C(=O)O` (stereo partly shown) [GI, 2-[1-Carboxy-2-[3-(4-trifluoromethyl-benzyl)-imidazol-4-yl]-ethylamino]-4-methyl-pentanoic acid] are 10 to 50 µM, over 50 µM, under 0.1 µM and under 0.1 µM.
With `CC(C)CC(N[C@@H](Cc1cncn1Cc1ccc(C(F)(F)F)cc1)C(=O)O)C(=O)O` (stereo partly shown) [GJ, 2-[1-Carboxy-2-[3-(4-trifluoromethyl-benzyl)-3H-imidazol-4-yl]-ethylamino]4-methyl-pentanoic acid], the Ki in data set [1] was 10 to 50 µM; in data set [2], 10 to 50 µM; in data set [3], over 0.5 µM; in data set [4], over 0.5 µM.
`CC(C)C[C@H](N[C@@H](C(=O)O)c1ccccc1)C(=O)O` [R, 2-[(Carboxy-phenyl-methyl)-amino]-4-methyl-pentanoic acid]: the Ki in data set [1] was over 50 µM; in data set [2], over 50 µM; in data set [3], over 0.5 µM; in data set [4] it was over 0.5 µM.
Regarding `CC(C)C[C@H](N[C@H](CC(=O)O)C(=O)O)C(=O)O` [U, 2-(1-Carboxy-3-methyl-butylamino)-succinic acid], the Ki in data set [1] was over 50 µM; in data set [2], over 50 µM; in data set [3], over 0.5 µM; in data set [4], over 0.5 µM.
For `CC(N)Cc1ccccc1` (stereo not shown) [amphetamine, reference compound], the cumulative food consumption entry in data set [5] (one hour) is on record as “about 0.18±0.05 g”; in data set [5] (six hours), “about 3.10±0.03 g”.
For ACE-2 (Homo sapiens), in data set [6], the Km was determined as 130 µM and the kcat/Km turned out to be 42000 M⁻¹ s⁻¹. For the same molecule, in data set [7], the Km stood at 340 µM and the kcat/Km was determined as 230000 M⁻¹ s⁻¹.
